From ChEMBL document CHEMBL5727912, “Benzenesulfonamide compounds and their use as therapeutic agents” (2020)

Columns and labels:
[1] = In Vitro Assay: In general, Trex HEK293 cells were stably transfected with an inducible expression vector containing the full-length cDNA coding for the desired human sodium channel α-subunit and with an expression vector containing full length cDNA coding for the β1-subunit. Sodium channel expressing cell lines were induced with tetracycline (1 μg/mL) and plated on 384-well PDL-coated plates at …
[2] = as above; remark: listed apart in the source

Row | Compound | IC50 [1] [µM] | IC50 [2] [µM]
1 | C[C@@H](c1c(F)ccc(F)c1CNc1cc(F)c(S(=O)(=O)Nc2cscn2)c(F)c1)N1C2CCC1CC2 (single isomer, unassigned) | > 30 | > 30
2 | C[C@H](c1c(F)ccc(F)c1CNc1cc(F)c(S(=O)(=O)Nc2cscn2)c(F)c1)N1C2CCC1CC2 (single isomer, unassigned) | > 30 | > 30
